Laboratory results reported in PubChem BioAssay (NCI).
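These data come from cells grown in 96-well plates and exposed to compound for 48 hours at five concentrations. TGI marks complete inhibition of growth.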

Columns and labels:
Test in all cases: NCI tumour cell line growth inhibition, 48 h
786-0 renal = system: 786-0 renal
A498 renal = system: A498 renal
A549 NSCLC = system: A549 NSCLC
ACHN renal = system: ACHN renal
BT-549 breast = system: BT-549 breast
CAKI-1 renal = system: CAKI-1 renal
CCRF-CEM leukemia = system: CCRF-CEM leukemia
COLO 205 colon = system: COLO 205 colon
DU-145 prostate = system: DU-145 prostate
EKVX NSCLC = system: EKVX NSCLC
HCC-2998 colon = system: HCC-2998 colon
HCT-116 colon = system: HCT-116 colon
HCT-15 colon = system: HCT-15 colon
HL-60(TB) leukemia = system: HL-60(TB) leukemia
HOP-62 NSCLC = system: HOP-62 NSCLC
HOP-92 NSCLC = system: HOP-92 NSCLC
HS 578T breast = system: HS 578T breast
HT29 colon = system: HT29 colon
IGROV1 ovarian = system: IGROV1 ovarian
K-562 leukemia = system: K-562 leukemia
KM12 colon = system: KM12 colon
LOX IMVI melanoma = system: LOX IMVI melanoma
M14 melanoma = system: M14 melanoma
MALME-3M melanoma = system: MALME-3M melanoma
MCF7 breast = system: MCF7 breast
MDA-MB-231 breast = system: MDA-MB-231 breast
MDA-MB-435 = system: MDA-MB-435
MDA-N = system: MDA-N
MOLT-4 leukemia = system: MOLT-4 leukemia
NCI-H226 lung = system: NCI-H226 lung
NCI-H23 lung = system: NCI-H23 lung
NCI-H460 lung = system: NCI-H460 lung
NCI-H522 lung = system: NCI-H522 lung
NCI/ADR-RES ovarian = system: NCI/ADR-RES ovarian
OVCAR-3 ovarian = system: OVCAR-3 ovarian
OVCAR-4 ovarian = system: OVCAR-4 ovarian
OVCAR-5 ovarian = system: OVCAR-5 ovarian
OVCAR-8 ovarian = system: OVCAR-8 ovarian
PC-3 prostate = system: PC-3 prostate
RPMI-8226 leukemia = system: RPMI-8226 leukemia
RXF 393 renal = system: RXF 393 renal
SF-268 CNS = system: SF-268 CNS
SF-295 CNS = system: SF-295 CNS
SF-539 CNS = system: SF-539 CNS
SK-MEL-2 melanoma = system: SK-MEL-2 melanoma
SK-MEL-28 melanoma = system: SK-MEL-28 melanoma
SK-MEL-5 melanoma = system: SK-MEL-5 melanoma
SK-OV-3 ovarian = system: SK-OV-3 ovarian
SN12C renal = system: SN12C renal
SNB-19 CNS = system: SNB-19 CNS
SNB-75 CNS = system: SNB-75 CNS
SR leukemia = system: SR leukemia
SW-620 colon = system: SW-620 colon
T-47D breast = system: T-47D breast
TK-10 renal = system: TK-10 renal
U251 CNS = system: U251 CNS
UACC-257 melanoma = system: UACC-257 melanoma
UACC-62 melanoma = system: UACC-62 melanoma
UO-31 renal = system: UO-31 renal
DLD-1 colon = system: DLD-1 colon
DMS 114 small cell lung = system: DMS 114 small cell lung
DMS 273 small cell lung = system: DMS 273 small cell lung
HOP-18 NSCLC = system: HOP-18 NSCLC
KM20L2 colon = system: KM20L2 colon
LXFL 529 NSCLC = system: LXFL 529 NSCLC
M19-MEL melanoma = system: M19-MEL melanoma
RXF-631 renal = system: RXF-631 renal
XF 498 CNS = system: XF 498 CNS

Measured: TGI

NC(N)=NS(=O)(=O)c1ccc(NC(=O)c2ccc3nc4ccccc4c(Nc4ccc(S(N)(=O)=O)cc4)c3c2)cc1
not listed: DLD-1 colon | DMS 114 small cell lung | DMS 273 small cell lung | HOP-18 NSCLC | KM20L2 colon | LXFL 529 NSCLC | M19-MEL melanoma | RXF-631 renal | XF 498 CNS
> 100 µM: all other assays above

O=C1CCC(O)=C1O
not listed: BT-549 breast | DU-145 prostate | HS 578T breast | MCF7 breast | MDA-MB-231 breast | MDA-MB-435 | MDA-N | NCI/ADR-RES ovarian | PC-3 prostate | SR leukemia | T-47D breast | UACC-257 melanoma | UO-31 renal
> 100 µM: all other assays above

O=C1C2Cc3ccccc3CN2C(=O)N1CCN1CCCC1 (configuration not stated)
not listed: BT-549 breast | DU-145 prostate | EKVX NSCLC | HCT-116 colon | HOP-92 NSCLC | HS 578T breast | HT29 colon | MCF7 breast | MDA-MB-231 breast | MDA-MB-435 | MDA-N | NCI/ADR-RES ovarian | PC-3 prostate | RXF 393 renal | SK-OV-3 ovarian | SNB-75 CNS | SR leukemia | T-47D breast | UACC-257 melanoma | HOP-18 NSCLC
> 100 µM: all other assays above
